Measured values as given in patent publication US20200308171A1, “BIFUNCTIONAL INHIBITORS WITH EGFR HAVING A E3 UBIQUITIN LIGASE MOIETY” (Hoffmann-La Roche Inc., priority 2017, published 2020).
Counter-ions that a name gives are not always drawn.

Biological target: T1, EGFR T790M/L858R/C797S (Homo sapiens, UniProt P00533, C797S/L858R/T790M)
T1 construct: expressed in transfected cells; host or cells: BaF3 (murine pro-B) cells stably transduced with pCDH lentiviral vector, PGK promoter
Experiment: EGFR Degradation Assay (Cellular), FRET quantification of total EGFR
Type: cell-based
Conditions: BaF3 EGFR mutant cell line (EGFR T790M/L858R/C797S); 4-hour incubation; total EGFR FRET kit; top concentration 1 μM, 11 points; read-out: IC50 [nM] mutant EGFR degradation
Procedure: EGFR Degradation Assay (Cellular)
The BaF3 parental line was purchased from DSMZ and grown in RPMI media supplemented with 10% FBS and 10 ng/mL interleukin 3 (IL-3) (Thermo Fisher Scientific). EGFR mutants ([…]) were cloned into the pCDH lentiviral vector (SystemBio) under the control of a PGK promoter and confirmed by DNA sequencing. The resulting gene expression vector for each mutant was mixed with packaging vectors and cotransfected into 2×10E6 HEK293T cells (ATCC) in 10 mL of DMEM media to generate lentiviral particles according to the manufacturers protocol (Origene).
Three days post-transfection, the viral supernatant was harvested and filtered. In one well of a 12-well plate, 0.5 mL of viral supernatant was added to 2E6 Ba/F3 cells contained in 1.5 mL of RPMI media including 10% FBS, 10 ng/mL IL-3, and 5 μg/mL polybrene (Invitrogen). The plate was centrifuged at 2,000 rpm for 1 hour at room temperature and infected cells were kept in a tissue culture incubator overnight at 37° C. The cells were washed once in fresh BaF3 media and reseeded at 0.5E6 cells/well of a 12-well plate in media supplemented with 0.5 μg/mL puromycin. The cells were maintained in this media for 3 weeks. IL-3-independent, EGFR mutant transformed cells were routinely maintained in RPMI medium supplemented with 10% FBS.
RPMI 1640 no-phenol red medium and fetal bovine serum (FBS) were purchased from Gibco (Grand Island, N.Y., USA). EGFR total kit and EGFR phospho-Y1068 kit were purchased from Cisbio (Bedford, Mass., USA). BaF3 EGFR mutant cell lines (EGFR T790M/L858R/C797S) cell line was generated in house, according to the protocol reported above. Cell culture flasks and 384-well microplates were acquired from VWR (Radnor, Pa., USA).
EGFR degradation was determined based on quantification of FRET signal using EGFR total kit. The FRET signal detected correlates with total EGFR protein level in cells. Briefly, test compounds were added to the 384-well plate from a top concentration of 1 μM with 11 points, half log titration in quadruplicates. Then, BaF3 EGFR mutant cell lines (EGFR T790M/L858R/C797S) were added into 384-well plates at a cell density of 10000 cells per well. The plates were kept at 37° C. with 5% CO2 for 4 hours. After 4-hour incubation, 4× lysis buffer was added to the cells, and then microplate was agitated on plate shaker at 500 rpm for 30 minutes at room temperature. Next, total EGFR antibody solution was added to the cells and the cells were incubated for another 4 hours at room temperature. Finally, FRET signal was acquired on EnVision™ Multilabel Reader (PerkinElmer, Santa Clara, Calif., USA). The cells treated in the absence of the test compound were the negative control and lysis buffer with antibody solution only were the positive control.

T1 sequence (P00533 25-1210 T790M/C797S/L858R): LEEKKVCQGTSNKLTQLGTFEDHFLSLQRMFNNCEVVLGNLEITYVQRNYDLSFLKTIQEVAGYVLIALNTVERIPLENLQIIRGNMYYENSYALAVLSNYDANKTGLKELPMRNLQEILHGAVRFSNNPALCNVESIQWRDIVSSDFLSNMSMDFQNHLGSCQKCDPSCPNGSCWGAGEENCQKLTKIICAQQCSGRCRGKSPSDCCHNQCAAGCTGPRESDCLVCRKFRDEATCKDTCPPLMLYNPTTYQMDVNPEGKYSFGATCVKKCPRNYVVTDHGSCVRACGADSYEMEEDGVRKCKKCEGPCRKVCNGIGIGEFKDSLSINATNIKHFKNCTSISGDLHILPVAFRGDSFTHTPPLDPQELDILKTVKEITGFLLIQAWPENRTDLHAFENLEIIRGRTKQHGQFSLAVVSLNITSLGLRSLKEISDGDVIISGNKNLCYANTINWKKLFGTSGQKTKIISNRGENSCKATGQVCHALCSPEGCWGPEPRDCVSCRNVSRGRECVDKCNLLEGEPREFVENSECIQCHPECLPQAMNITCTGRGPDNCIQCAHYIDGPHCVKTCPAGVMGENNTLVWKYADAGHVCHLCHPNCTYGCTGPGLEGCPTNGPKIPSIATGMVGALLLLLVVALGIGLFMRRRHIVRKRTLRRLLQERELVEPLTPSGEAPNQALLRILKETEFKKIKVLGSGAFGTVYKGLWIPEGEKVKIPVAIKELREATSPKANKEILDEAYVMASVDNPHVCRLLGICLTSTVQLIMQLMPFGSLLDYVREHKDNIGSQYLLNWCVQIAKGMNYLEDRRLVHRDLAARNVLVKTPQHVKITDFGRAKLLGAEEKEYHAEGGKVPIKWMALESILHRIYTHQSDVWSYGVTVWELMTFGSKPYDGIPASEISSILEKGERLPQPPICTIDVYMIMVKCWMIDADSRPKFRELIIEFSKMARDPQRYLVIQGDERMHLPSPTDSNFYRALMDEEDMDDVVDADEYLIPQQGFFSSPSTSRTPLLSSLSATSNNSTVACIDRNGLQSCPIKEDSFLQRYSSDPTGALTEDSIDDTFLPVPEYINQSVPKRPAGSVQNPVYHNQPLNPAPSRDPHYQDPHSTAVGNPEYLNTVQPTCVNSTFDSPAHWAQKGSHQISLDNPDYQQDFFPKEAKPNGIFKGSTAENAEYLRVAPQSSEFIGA

DC50 [nM]	SMILES
38	COC1CCN(c2nccc(Nc3cc4c(cn3)c(C(=O)NC3CCN(CCCCCCNc5cccc6c5C(=O)N(C5CCC(=O)NC5=O)C6=O)CC3)cn4C3CCCC3)n2)CC1 (racemic) [Example 4, 1-Cyclopentyl-N-[1-[6-[[2-[(3RS)-2,6-dioxo-3-piperidyl]-1,3-dioxo-isoindolin-4-yl]amino]hexyl]-4-piperidyl]-6-[[2-(4-methoxy-1-piperidyl)pyrimidin-4-yl]amino]pyrrolo[3,2-c]pyridine-3-carboxamide]
46	COC1CCN(c2nccc(Nc3cc4c(cn3)c(N3CCC(C(=O)NC5CCN(CCCCCCNc6cccc7c6C(=O)N(C6CCC(=O)NC6=O)C7=O)CC5)C3)nn4C(C)C)n2)CC1 (racemic) [Example 6, (3RS)—N-[1-[6-[[2-[(3RS)-2,6-Dioxo-3-piperidyl]-1,3-dioxo-isoindolin-4-yl]amino]hexyl]-4-piperidyl]-1-[1-isopropyl-6-[[2-(4-methoxy-1-piperidyl)pyrimidin-4-yl]amino]pyrazolo[4,3-c]pyridin-3-yl]pyrrolidine-3-carboxamide]
43	CO[C@H]1CCN(c2nccc(Nc3cc4c(cn3)c(C(=O)NC3CCN(CCCCCNc5cccc6c5C(=O)N(C5CCC(=O)NC5=O)C6=O)CC3)cn4C3CCCC3)n2)C[C@H]1F (mixture of isomers) [Example 11, 1-Cyclopentyl-N-[1-[5-[[2-[(3RS)-2,6-dioxo-3-piperidyl]-1,3-dioxo-isoindolin-4-yl]amino]pentyl]-4-piperidyl]-6-[[2-[(3R,4S)-3-fluoro-4-methoxy-1-piperidyl]pyrimidin-4-yl]amino]pyrrolo[3,2-c]pyridine-3-carboxamide]
26	CO[C@H]1CCN(c2nccc(Nc3cc4c(cn3)c(C(=O)NC3CCN(CCCCCNc5cccc6c5C(=O)N(C5CCC(=O)NC5=O)C6=O)CC3)cn4C(C)C)n2)C[C@H]1F (mixture of isomers) [Example 9, N-[1-[5-[[2-[(3RS)-2,6-Dioxo-3-piperidyl]-1,3-dioxo-isoindolin-4-yl]amino]pentyl]-4-piperidyl]-6-[[2-[(3R,4S)-3-fluoro-4-methoxy-1-piperidyl]pyrimidin-4-yl]amino]-1-isopropyl-pyrrolo[3,2-c]pyridine-3-carboxamide]
69	CO[C@H]1CCN(c2nccc(Nc3cc4c(cn3)c(C(=O)NC3CCN(CCCC5CCN(c6cccc7c6C(=O)N(C6CCC(=O)NC6=O)C7=O)CC5)CC3)cn4C(C)C)n2)C[C@H]1F (mixture of isomers) [Example 12, N-[1-[3-[1-[2-[(3RS)-2,6-Dioxo-3-piperidyl]-1,3-dioxo-isoindolin-4-yl]-4-piperidyl]propyl]-4-piperidyl]-6-[[2-[(3R,4S)(3S,4R)-3-fluoro-4-methoxy-1-piperidyl]pyrimidin-4-yl]amino]-1-isopropyl-pyrrolo[3,2-c]pyridine-3-carboxamide trifluoroacetate]
132	COC1CCN(c2nccc(Nc3cc4c(cn3)c(C(=O)NC3CCN(CCCCCCNc5cccc6c5C(=O)N(C5CCC(=O)NC5=O)C6=O)CC3)cn4C(C)C)n2)CC1 (racemic) [Example 2, N-[1-[6-[[2-[(3RS)-2,6-Dioxo-3-piperidyl]-1,3-dioxo-isoindolin-4-yl]amino]hexyl]-4-piperidyl]-1-isopropyl-6-[[2-(4-methoxy-1-piperidyl)pyrimidin-4-yl]amino]pyrrolo[3,2-c]pyridine-3-carboxamide]
30	CO[C@H]1CCN(c2nccc(Nc3cc4c(cn3)c(C(=O)NC3CCN(C(=O)N5CCN(CCCCNc6cccc7c6C(=O)N(C6CCC(=O)NC6=O)C7=O)CC5)CC3)cn4C3CCCC3)n2)C[C@H]1F (mixture of isomers) [Example 13, 1-Cyclopentyl-N-[1-[4-[4-[[2-[(3RS)-2,6-dioxo-3-piperidyl]-1,3-dioxo-isoindolin-4-yl]amino]butyl]piperazine-1-carbonyl]-4-piperidyl]-6-[[2-[(3R,4S)-3-fluoro-4-methoxy-1-piperidyl]pyrimidin-4-yl]amino]pyrrolo[3,2-c]pyridine-3-carboxamide]
41	CO[C@H]1CCN(c2nccc(Nc3cc4c(cn3)c(C(=O)NC3CCN(CCCCNc5cccc6c5C(=O)N(C5CCC(=O)NC5=O)C6=O)CC3)cn4C(C)C)n2)C[C@H]1F (mixture of isomers) [Example 14, N-[1-[4-[[2-[(3RS)-2,6-Dioxo-3-piperidyl]-1,3-dioxo-isoindolin-4-yl]amino]butyl]-4-piperidyl]-6-[[2-[(3R,4S)-3-fluoro-4-methoxy-1-piperidyl]pyrimidin-4-yl]amino]-1-isopropyl-pyrrolo[3,2-c]pyridine-3-carboxamide]
46	CO[C@@H]1CCN(c2nccc(Nc3cc4c(cn3)c(C(=O)NC3CCN(CCCCCCNc5cccc6c5C(=O)N(C5CCC(=O)NC5=O)C6=O)CC3)cn4C(C)C)n2)C[C@@H]1F (mixture of isomers) [Example 8, N-[1-[6-[[2-[(3RS)-2,6-Dioxo-3-piperidyl]-1,3-dioxo-isoindolin-4-yl]amino]hexyl]-4-piperidyl]-6-[[2-[(3S,4R)-3-fluoro-4-methoxy-1-piperidyl]pyrimidin-4-yl]amino]-1-isopropyl-pyrrolo[3,2-c]pyridine-3-carboxamide]
59	COC1CCN(c2nccc(Nc3cc4c(cn3)c(C(=O)NC3CCN(C(=O)CCCCCNc5cccc6c5C(=O)N(C5CCC(=O)NC5=O)C6=O)CC3)cn4C(C)C)n2)CC1 (racemic) [Example 1, N-[1-[6-[[2-[(3RS)-2,6-Dioxo-3-piperidyl]-1,3-dioxo-isoindolin-4-yl]amino]hexanoyl]-4-piperidyl]-1-isopropyl-6-[[2-(4-methoxy-1-piperidyl)pyrimidin-4-yl]amino]pyrrolo[3,2-c]pyridine-3-carboxamide]
45	CO[C@H]1CCN(c2nccc(Nc3cc4c(cn3)c(C(=O)NC3CCN(CCCOC5CCN(c6cccc7c6C(=O)N(C6CCC(=O)NC6=O)C7=O)CC5)CC3)cn4C3CCCC3)n2)C[C@H]1F (single isomer, unassigned) [Example 18]
70	CO[C@H]1CCN(c2nccc(Nc3cc4c(cn3)c(C(=O)NC3CCN(CCCCCCNc5cccc6c5C(=O)N(C5CCC(=O)NC5=O)C6=O)CC3)cn4C(C)C)n2)C[C@H]1F (mixture of isomers) [Example 7, N-[1-[6-[[2-[(3RS)-2,6-Dioxo-3-piperidyl]-1,3-dioxo-isoindolin-4-yl]amino]hexyl]-4-piperidyl]-6-[[2-[(3R,4S)-3-fluoro-4-methoxy-1-piperidyl]pyrimidin-4-yl]amino]-1-isopropyl-pyrrolo[3,2-c]pyridine-3-carboxamide]
8	CO[C@H]1CCN(c2nccc(Nc3cc4c(cn3)c(C(=O)NC3CCN(CCC5CN(c6cccc7c6C(=O)N(C6CCC(=O)NC6=O)C7=O)C5)CC3)cn4C(C)C)n2)C[C@H]1F (mixture of isomers) [Example 23, N-[1-[2-[1-[2-[(3RS)-2,6-Dioxo-3-piperidyl]-1,3-dioxo-isoindolin-4-yl]azetidin-3-yl]ethyl]-4-piperidyl]-6-[[2-[(3R,4S)-3-fluoro-4-methoxy-1-piperidyl]pyrimidin-4-yl]amino]-1-isopropyl-pyrrolo[3,2-c]pyridine-3-carboxamide]
15	CO[C@H]1CCN(c2nccc(Nc3cc4c(cn3)c(C(=O)NC3CCN(CCC[C@H]5CC[C@H](Nc6cccc7c6C(=O)N(C6CCC(=O)NC6=O)C7=O)CC5)CC3)cn4C(C)C)n2)C[C@H]1F (mixture of isomers) [Example 20, N-[1-[3-[4-[[2-[(3RS)-2,6-Dioxo-3-piperidyl]-1,3-dioxo-isoindolin-4-yl]amino]cyclohexyl]propyl]-4-piperidyl]-6-[[2-[(3R,4S)-3-fluoro-4-methoxy-l-piperidyl]pyrimidin-4-yl]amino]-1-isopropyl-pyrrolo[3,2-c]pyridine-3-carboxamide]
